Consider 10 compounds from US10004701B2, “Methods and compositions for treating infection” (UNIVERSITY OF ROCHESTER, priority 2012, dated 2018).

Molecules are shown by their SMILES. Where a name gives a salt, the structure may show the parent alone. Read-outs that look alike come from different tables or passages of the source.

Common to all, as to assay: AK assay 384-well format, Prestwick library screening
The subject of assay [1] is A. baumannii strain 98-37-09. The format is cell-based, Acinetobacter baumannii. To be noted: 50 μM final drug concentration; for fold induction at 50 µM: Acinetobacter baumannii, 983709, 3 h.
For another assay, the system named is K. pneumoniae. The format is cell-based, Klebsiella pneumoniae. To be noted: 50 μM final drug concentration; for fold induction at 50 µM: Klebsiella pneumoniae, 3 h.
In the next assay the test system is P. aeruginosa. The format is cell-based, Pseudomonas aeruginosa. The conditions noted are these: 50 μM final drug concentration; for fold induction at 50 µM: Pseudomonas aeruginosa, 3 h.
Another assay relates to E. coli. The format is cell-based, Escherichia coli. The conditions noted are these: 50 μM final drug concentration; for fold induction at 50 µM: Escherichia coli, 3 h.
Assay [2] deals with S. aureus strain USA300-0114. The format is cell-based, Staphylococcus aureus. To be noted: 50 μM final drug concentration; for fold induction at 50 µM: Staphylococcus aureus, USA300, 3 h.
The test system of the next assay is E. cloacae. The format is cell-based, Enterobacter cloacae. The conditions noted are these: 50 μM final drug concentration; for fold induction at 50 µM: Enterobacter cloacae, 3 h.
The next assay deals with E. faecium. The format is cell-based, Enterococcus faecium. The conditions noted are these: 50 μM final drug concentration; for fold induction at 50 µM: Enterococcus faecium, 3 h.
Setting [3] is: 384-well format, cutoff for positive-scoring molecules 3-fold increase.
[4] abbreviates: planktonic, cutoff for positive-scoring molecules 3-fold increase, read-out: AK-based Prestwick Library Screening Results, A. baumannii (fold increase in extracellular AK activity).
[5] abbreviates: planktonic, cutoff for positive-scoring molecules 3-fold increase, read-out: AK-based Prestwick Library Screening Results, K. pneumoniae (fold increase in extracellular AK activity).
Setting [6] is: planktonic, cutoff for positive-scoring molecules 3-fold increase, read-out: AK-based Prestwick Library Screening Results, P. aeruginosa (fold increase in extracellular AK activity).
Where [7] appears, read: planktonic, cutoff for positive-scoring molecules 3-fold increase, read-out: AK-based Prestwick Library Screening Results, E. coli (fold increase in extracellular AK activity).
Where [8] appears, read: planktonic, cutoff for positive-scoring molecules 3-fold increase, read-out: AK-based Prestwick Library Screening Results, S. aureus (fold increase in extracellular AK activity).
[9] abbreviates: planktonic, cutoff for positive-scoring molecules 3-fold increase, read-out: AK-based Prestwick Library Screening Results, E. cloacae (fold increase in extracellular AK activity).
[10] abbreviates: planktonic, cutoff for positive-scoring molecules 3-fold increase, read-out: AK-based Prestwick Library Screening Results, E. faecium (fold increase in extracellular AK activity).
The mark [11] stands for this setting: 384-well format, cutoff for positive-scoring molecules 3-fold increase, read-out: AK-based Prestwick Library Screening Results, A. baumannii (increase in extracellular AK activity).
The mark [12] stands for this setting: 384-well format, cutoff for positive-scoring molecules 3-fold increase, read-out: AK-based Prestwick Library Screening Results, K. pneumoniae (increase in extracellular AK activity).
Setting [13] is: 384-well format, cutoff for positive-scoring molecules 3-fold increase, read-out: AK-based Prestwick Library Screening Results, P. aeruginosa (increase in extracellular AK activity).
Where [14] appears, read: 384-well format, cutoff for positive-scoring molecules 3-fold increase, read-out: AK-based Prestwick Library Screening Results, E. coli (increase in extracellular AK activity).
The mark [15] stands for this setting: 384-well format, cutoff for positive-scoring molecules 3-fold increase, read-out: AK-based Prestwick Library Screening Results, S. aureus (increase in extracellular AK activity).
[16] abbreviates: 384-well format, cutoff for positive-scoring molecules 3-fold increase, read-out: AK-based Prestwick Library Screening Results, E. cloacae (increase in extracellular AK activity).
[17] abbreviates: 384-well format, cutoff for positive-scoring molecules 3-fold increase, read-out: AK-based Prestwick Library Screening Results, E. faecium (increase in extracellular AK activity).
Setting [18] is: planktonic, cutoff for positive-scoring molecules 3-fold increase.

Take `CNCC(O)c1ccc(O)c(OC)c1.Cl` (stereo not drawn) [Metanephrine hydrochloride DL]: the “AK-based Prestwick Library Screening Results, A. baumannii (increase in extracellular AK activity)” value in assay [1] (setting [3]) is recorded as 1.1. In addition, the “AK-based Prestwick Library Screening Results, K. pneumoniae (increase in extracellular AK activity)” value in the assay on K. pneumoniae (setting [3]) was found to be 1.0. The “AK-based Prestwick Library Screening Results, P. aeruginosa (increase in extracellular AK activity)” value in the assay with P. aeruginosa (setting [3]) was found to be 1.1. Moreover, the “AK-based Prestwick Library Screening Results, E. coli (increase in extracellular AK activity)” value in the assay with E. coli (setting [3]) is 1.3. The “AK-based Prestwick Library Screening Results, S. aureus (increase in extracellular AK activity)” value in assay [2] (setting [3]) is 1.2. The “AK-based Prestwick Library Screening Results, E. cloacae (increase in extracellular AK activity)” value with E. cloacae (setting [3]) came to 1.3. Moreover, in the assay with E. faecium (setting [3]), the “AK-based Prestwick Library Screening Results, E. faecium (increase in extracellular AK activity)” value is 1.0.
`Nc1ncnc2c1ncn2[C@@H]1O[C@H](CO)[C@@H](O)[C@@H]1O` [Vidarabine]: the fold induction at 50 µM in assay [1] (setting [4]) is 1; in the assay on K. pneumoniae (setting [5]) it was 0.7; in the assay on P. aeruginosa (setting [6]), 1; in the assay with E. coli (setting [7]) it was 1.1; in assay [2] (setting [8]), 1.5; in the assay on E. cloacae (setting [9]), 1.8. Besides, the fold induction at 50 µM with E. faecium (setting [10]) amounted to 1.1.
`C#C[C@]1(O)CC[C@H]2[C@@H]3CCC4=Cc5oncc5C[C@]4(C)[C@H]3CC[C@@]21C` [Danazol]: the fold induction at 50 µM in assay [1] (setting [11]) is 0.9; with K. pneumoniae (setting [12]) it was 0.6; in the assay with P. aeruginosa (setting [13]), 0.8; in the assay on E. coli (setting [14]) it was 0.7; in assay [2] (setting [15]), 0.6; in the assay with E. cloacae (setting [16]) it was 0.9. Further, the fold induction at 50 µM in the assay with E. faecium (setting [17]) stood at 0.9.
In the case of `CCCOc1cc(N)ccc1C(=O)OCCN(CC)CC` [Propoxycaine hydrochloride], the fold induction at 50 µM in assay [1] (planktonic A. baumannii, positive cutoff 3-fold increase, read-out: AK-based Prestwick library screening result, A. baumannii (fold increase in extracellular AK activity)) is 0.8; in the assay on K. pneumoniae (planktonic K. pneumoniae, positive cutoff 3-fold increase, read-out: AK-based Prestwick library screening result, K. pneumoniae (fold increase in extracellular AK activity)) it was 0.6; in the assay with P. aeruginosa (planktonic P. aeruginosa, positive cutoff 3-fold increase, read-out: AK-based Prestwick library screening result, P. aeruginosa (fold increase in extracellular AK activity)) it was 0.7; in the assay with E. coli (planktonic E. coli, positive cutoff 3-fold increase, read-out: AK-based Prestwick library screening result, E. coli (fold increase in extracellular AK activity)) it was 0.6; in assay [2] (planktonic S. aureus, positive cutoff 3-fold increase, read-out: AK-based Prestwick library screening result, S. aureus (fold increase in extracellular AK activity)), 0.7; in the assay on E. cloacae (planktonic E. cloacae, positive cutoff 3-fold increase, read-out: AK-based Prestwick library screening result, E. cloacae (fold increase in extracellular AK activity)) it was 0.8. In the assay on E. faecium (planktonic E. faecium, positive cutoff 3-fold increase, read-out: AK-based Prestwick library screening result, E. faecium (fold increase in extracellular AK activity)), the fold induction at 50 µM is 1.
`C[C@@]1(O)CCOC(=O)C1` [Mevalonic-D, L acid lactone]: the “AK-based Prestwick Library Screening Results, A. baumannii (fold increase in extracellular AK activity)” value in assay [1] (setting [18]) was found to be 0.9. In addition, in the assay with K. pneumoniae (setting [18]), the “AK-based Prestwick Library Screening Results, K. pneumoniae (fold increase in extracellular AK activity)” value stood at 0.8. In the assay on P. aeruginosa (setting [18]), the “AK-based Prestwick Library Screening Results, P. aeruginosa (fold increase in extracellular AK activity)” value came out at 0.8. The “AK-based Prestwick Library Screening Results, E. coli (fold increase in extracellular AK activity)” value in the assay on E. coli (setting [18]) is listed as 1.0. For the same compound, the “AK-based Prestwick Library Screening Results, S. aureus (fold increase in extracellular AK activity)” value in assay [2] (setting [18]) is 0.9. The “AK-based Prestwick Library Screening Results, E. cloacae (fold increase in extracellular AK activity)” value in the assay with E. cloacae (setting [18]) was 0.9. For the same compound, the “AK-based Prestwick Library Screening Results, E. faecium (fold increase in extracellular AK activity)” value in the assay with E. faecium (setting [18]) stood at 1.0.
Take `CC1=C(C(=O)O)N2C(=O)[C@@H](NC(=O)[C@H](N)c3ccccc3)[C@H]2SC1` [Cephalexin monohydrate]: the fold induction at 50 µM in assay [1] (planktonic A. baumannii, cutoff for positive-scoring molecules 3-fold increase, read-out: AK-based Prestwick Library Screening Results, A. baumannii (increase in extracellular AK activity)) came out at 0.9; in the assay on K. pneumoniae (planktonic K. pneumoniae, cutoff for positive-scoring molecules 3-fold increase, read-out: AK-based Prestwick Library Screening Results, K. pneumoniae (increase in extracellular AK activity)), 0.7; in the assay on P. aeruginosa (planktonic P. aeruginosa, cutoff for positive-scoring molecules 3-fold increase, read-out: AK-based Prestwick Library Screening Results, P. aeruginosa (increase in extracellular AK activity)), 0.8; in the assay on E. coli (planktonic E. coli, cutoff for positive-scoring molecules 3-fold increase, read-out: AK-based Prestwick Library Screening Results, E. coli (increase in extracellular AK activity)), 0.8; in assay [2] (planktonic S. aureus, cutoff for positive-scoring molecules 3-fold increase, read-out: AK-based Prestwick Library Screening Results, S. aureus (increase in extracellular AK activity)), 0.7; in the assay with E. cloacae (planktonic E. cloacae, cutoff for positive-scoring molecules 3-fold increase, read-out: AK-based Prestwick Library Screening Results, E. cloacae (increase in extracellular AK activity)), 1.4. Further, the fold induction at 50 µM with E. faecium (planktonic E. faecium, cutoff for positive-scoring molecules 3-fold increase, read-out: AK-based Prestwick Library Screening Results, E. faecium (increase in extracellular AK activity)) is 0.9.
Consider `OCCN1CCN(CCCN2c3ccccc3Sc3ccc(Cl)cc32)CC1` [Perphenazine], for which the fold induction at 50 µM in assay [1] (setting [11]) was 1.6; in the assay on K. pneumoniae (setting [12]) it was 1.3; with P. aeruginosa (setting [13]) it was 1.1; in the assay on E. coli (setting [14]), 1.5; in assay [2] (setting [15]), 0.9; with E. cloacae (setting [16]) it was 1.4. Besides, the fold induction at 50 µM in the assay on E. faecium (setting [17]) stood at 1.2.
Regarding `COc1c2occc2c(OC)c2c(=O)cc(C)oc12` [Khellin], the fold induction at 50 µM in assay [1] (setting [11]) amounted to 0.7; in the assay on K. pneumoniae (setting [12]), 0.6; in the assay on P. aeruginosa (setting [13]), 0.7; with E. coli (setting [14]), 0.6; in assay [2] (setting [15]), 0.7; with E. cloacae (setting [16]), 0.7. Besides, the fold induction at 50 µM in the assay with E. faecium (setting [17]) stood at 0.9.
With `COc1ccc(CN2CCNCC2)c(OC)c1OC` [Trimetazidine dihydrochloride], the fold induction at 50 µM in assay [1] (planktonic, cutoff for positive 3-fold increase, read-out: AK-based Prestwick Library Screening Results, A. baumannii (fold increase in extracellular AK activity)) was 1.2; in the assay with K. pneumoniae (planktonic, cutoff for positive 3-fold increase, read-out: AK-based Prestwick Library Screening Results, K. pneumoniae (fold increase in extracellular AK activity)) it was 1.1; in the assay with P. aeruginosa (planktonic, cutoff for positive 3-fold increase, read-out: AK-based Prestwick Library Screening Results, P. aeruginosa (fold increase in extracellular AK activity)) it was 1.1; with E. coli (planktonic, cutoff for positive 3-fold increase, read-out: AK-based Prestwick Library Screening Results, E. coli (fold increase in extracellular AK activity)), 1.4; in assay [2] (planktonic, cutoff for positive 3-fold increase, read-out: AK-based Prestwick Library Screening Results, S. aureus (fold increase in extracellular AK activity)), 1.2; with E. cloacae (planktonic, cutoff for positive 3-fold increase, read-out: AK-based Prestwick Library Screening Results, E. cloacae (fold increase in extracellular AK activity)), 1.7. Also, the fold induction at 50 µM in the assay on E. faecium (planktonic, cutoff for positive 3-fold increase, read-out: AK-based Prestwick Library Screening Results, E. faecium (fold increase in extracellular AK activity)) was 1.
For `Cc1cc(=O)oc2cc(O)ccc12` [Hymecromone], the fold induction at 50 µM in assay [1] (setting [4]) is 0.8; in the assay with K. pneumoniae (setting [5]), 0.7; in the assay on P. aeruginosa (setting [6]), 1; in the assay with E. coli (setting [7]), 0.9; in assay [2] (setting [8]), 1; in the assay with E. cloacae (setting [9]), 1.1. For the same compound, the fold induction at 50 µM with E. faecium (setting [10]) is 1.
